Measurements reported in PMC6437697 (Journal of Medicinal Chemistry, 2019).

Legend:
Experiment in all cases: KINOMEscan
Type in all cases: binding
Conditions in all cases: read-out: % control activity remaining
GRK7 = biological target: T1, GRK7 (Homo sapiens, UniProt Q8WTQ7)
T1 construct: purchased Eurofins DiscoverX KINOMEscan
T1 sequence (Q8WTQ7 1-553): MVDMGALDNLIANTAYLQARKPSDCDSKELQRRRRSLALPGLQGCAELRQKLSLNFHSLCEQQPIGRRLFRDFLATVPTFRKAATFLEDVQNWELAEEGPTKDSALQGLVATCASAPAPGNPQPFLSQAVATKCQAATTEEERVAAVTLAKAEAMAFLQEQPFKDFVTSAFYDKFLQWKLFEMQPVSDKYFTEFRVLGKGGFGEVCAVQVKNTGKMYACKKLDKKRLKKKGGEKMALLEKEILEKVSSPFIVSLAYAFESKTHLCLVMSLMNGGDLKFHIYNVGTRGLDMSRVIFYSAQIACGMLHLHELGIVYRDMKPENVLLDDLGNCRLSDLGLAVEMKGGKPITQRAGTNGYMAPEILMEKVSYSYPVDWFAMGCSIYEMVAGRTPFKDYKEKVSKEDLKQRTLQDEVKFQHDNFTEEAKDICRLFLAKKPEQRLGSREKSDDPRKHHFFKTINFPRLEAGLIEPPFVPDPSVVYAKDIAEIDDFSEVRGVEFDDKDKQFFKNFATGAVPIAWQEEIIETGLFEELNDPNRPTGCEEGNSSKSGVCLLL

ERK3 = biological target: T2, ERK3 (Homo sapiens, UniProt Q16659)
T2 construct: purchased Eurofins DiscoverX KINOMEscan
T2 sequence (Q16659 whole entry): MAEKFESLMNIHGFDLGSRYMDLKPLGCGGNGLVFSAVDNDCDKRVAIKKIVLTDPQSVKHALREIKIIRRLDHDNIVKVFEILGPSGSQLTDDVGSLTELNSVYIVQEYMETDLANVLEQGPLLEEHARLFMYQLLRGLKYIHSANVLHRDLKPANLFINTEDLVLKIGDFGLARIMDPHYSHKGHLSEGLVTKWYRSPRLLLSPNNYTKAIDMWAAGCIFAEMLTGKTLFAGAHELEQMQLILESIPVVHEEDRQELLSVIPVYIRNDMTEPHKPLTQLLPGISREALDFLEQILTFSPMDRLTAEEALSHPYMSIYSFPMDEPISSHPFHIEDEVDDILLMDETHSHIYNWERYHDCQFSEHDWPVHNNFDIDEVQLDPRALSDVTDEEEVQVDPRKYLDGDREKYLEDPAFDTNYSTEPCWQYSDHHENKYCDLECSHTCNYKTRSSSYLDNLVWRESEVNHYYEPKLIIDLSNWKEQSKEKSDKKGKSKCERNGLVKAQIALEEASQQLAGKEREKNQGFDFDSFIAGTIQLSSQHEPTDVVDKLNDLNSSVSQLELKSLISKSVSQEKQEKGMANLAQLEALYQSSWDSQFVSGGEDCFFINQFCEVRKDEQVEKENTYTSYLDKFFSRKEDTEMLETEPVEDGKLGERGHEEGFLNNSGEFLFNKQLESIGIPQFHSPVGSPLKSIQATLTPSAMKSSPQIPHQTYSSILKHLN

ACVR1 = biological target: T3, ACVR1 (Homo sapiens, UniProt Q04771)
T3 construct: purchased Eurofins DiscoverX KINOMEscan
T3 sequence (Q04771 21-509): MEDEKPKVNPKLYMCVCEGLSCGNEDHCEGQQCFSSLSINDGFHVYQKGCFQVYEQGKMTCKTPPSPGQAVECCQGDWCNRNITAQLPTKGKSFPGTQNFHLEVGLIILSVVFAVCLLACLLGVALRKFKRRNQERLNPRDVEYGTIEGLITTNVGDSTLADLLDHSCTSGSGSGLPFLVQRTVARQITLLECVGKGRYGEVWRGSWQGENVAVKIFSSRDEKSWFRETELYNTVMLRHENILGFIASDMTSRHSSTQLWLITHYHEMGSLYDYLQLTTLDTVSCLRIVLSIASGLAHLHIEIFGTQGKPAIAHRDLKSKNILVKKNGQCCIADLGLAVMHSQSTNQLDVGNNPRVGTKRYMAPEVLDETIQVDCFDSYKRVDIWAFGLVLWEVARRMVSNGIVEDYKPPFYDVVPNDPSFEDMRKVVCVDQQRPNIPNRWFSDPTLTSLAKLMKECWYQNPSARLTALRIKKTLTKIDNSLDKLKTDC

TNK1 = biological target: T4, TNK1 (Homo sapiens, UniProt Q13470)
T4 construct: purchased Eurofins DiscoverX KINOMEscan
T4 sequence (Q13470 1-666): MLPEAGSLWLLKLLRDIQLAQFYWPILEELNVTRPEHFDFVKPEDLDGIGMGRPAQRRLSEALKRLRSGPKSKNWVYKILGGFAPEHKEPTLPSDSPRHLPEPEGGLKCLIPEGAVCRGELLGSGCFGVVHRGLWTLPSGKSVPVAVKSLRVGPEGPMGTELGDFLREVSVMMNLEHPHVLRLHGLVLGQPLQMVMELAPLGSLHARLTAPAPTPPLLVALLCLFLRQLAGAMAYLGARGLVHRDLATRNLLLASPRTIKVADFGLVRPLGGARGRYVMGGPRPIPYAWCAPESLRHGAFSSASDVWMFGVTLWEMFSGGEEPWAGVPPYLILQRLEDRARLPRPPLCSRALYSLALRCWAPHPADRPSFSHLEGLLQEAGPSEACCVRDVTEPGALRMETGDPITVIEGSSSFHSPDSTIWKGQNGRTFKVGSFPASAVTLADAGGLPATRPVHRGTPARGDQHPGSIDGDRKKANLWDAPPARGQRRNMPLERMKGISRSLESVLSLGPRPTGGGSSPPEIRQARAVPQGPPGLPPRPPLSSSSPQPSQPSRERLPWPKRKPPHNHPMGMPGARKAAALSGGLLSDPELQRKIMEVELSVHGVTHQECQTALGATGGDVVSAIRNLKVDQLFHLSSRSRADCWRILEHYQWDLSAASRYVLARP

PRKD2 = biological target: T5, PRKD2 (Homo sapiens, UniProt Q9BZL6)
T5 construct: purchased Eurofins DiscoverX KINOMEscan
T5 sequence (Q9BZL6 1-878): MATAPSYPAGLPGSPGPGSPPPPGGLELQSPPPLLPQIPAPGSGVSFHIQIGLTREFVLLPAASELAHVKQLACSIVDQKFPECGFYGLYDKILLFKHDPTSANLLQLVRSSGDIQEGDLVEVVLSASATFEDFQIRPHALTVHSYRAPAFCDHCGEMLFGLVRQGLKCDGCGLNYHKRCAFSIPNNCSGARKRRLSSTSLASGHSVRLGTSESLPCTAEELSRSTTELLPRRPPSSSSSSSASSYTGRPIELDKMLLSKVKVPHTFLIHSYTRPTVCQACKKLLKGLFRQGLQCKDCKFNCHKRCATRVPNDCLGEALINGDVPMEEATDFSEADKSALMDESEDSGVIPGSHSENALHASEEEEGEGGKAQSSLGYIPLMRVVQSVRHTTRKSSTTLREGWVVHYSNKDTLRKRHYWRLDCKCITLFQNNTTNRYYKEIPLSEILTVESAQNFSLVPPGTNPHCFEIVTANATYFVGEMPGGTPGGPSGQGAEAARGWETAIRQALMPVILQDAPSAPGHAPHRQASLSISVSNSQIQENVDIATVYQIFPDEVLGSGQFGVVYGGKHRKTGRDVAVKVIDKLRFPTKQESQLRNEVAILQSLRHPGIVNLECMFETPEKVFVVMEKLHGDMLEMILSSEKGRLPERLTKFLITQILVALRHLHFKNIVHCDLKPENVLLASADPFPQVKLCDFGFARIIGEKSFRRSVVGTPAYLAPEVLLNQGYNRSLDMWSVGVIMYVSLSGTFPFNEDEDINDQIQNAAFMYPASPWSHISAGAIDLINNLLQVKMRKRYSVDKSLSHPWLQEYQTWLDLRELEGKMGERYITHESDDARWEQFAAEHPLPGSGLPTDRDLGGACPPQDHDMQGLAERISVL

| SMILES | remaining binding at 1 µM (GRK7) | remaining binding at 1 µM (ERK3) | remaining binding at 1 µM (ACVR1) | remaining binding at 1 µM (TNK1) | remaining binding at 1 µM (PRKD2) |
| --- | --- | --- | --- | --- | --- |
| Clc1cc(NCC2CC2)c2ncc(-c3ccc4[nH]ncc4c3)n2n1 [compound 2, 6-Chloro-N-(cyclopropylmethyl)-3-(1H-indazol-5-yl)imidazo[1,2-b]pyridazin-8-amine] | 97% | 96% | 90% | 69% | 100% |
| O=C(CN1CCOCC1)N[C@H]1CC[C@H](Nc2cc(Cl)nn3c(-c4ccc5[nH]ncc5c4)cnc23)CC1 [compound 26] | 63% | 68% | 95% | 100% | 100% |
| CN1CCC(CNc2cc(Cl)nn3c(-c4cc5nc(Nc6ccccc6)[nH]c5cc4F)cnc23)CC1 [compound 31, 6-Chloro-3-(6-fluoro-2-(phenylamino)-1H-benzo[d]imidazol-5-yl)-N-((1-methylpiperidin-4-yl)methyl)imidazo[1,2-b]pyridazin-8-amine] | 77% | 94% | 99% | 100% | 93% |
